Source: patent US20250228239A1, “MOLECULES HAVING PESTICIDAL UTILITY, AND INTERMEDIATES, COMPOSITIONS, AND PROCESSES, RELATED THERETO” (priority 2024, published 2025)

Key:
[1] = test system: Beet Armyworm (Spodoptera exigua, LAPHEG); experiment: Bioassays on Beet Armyworm (BAW), 128-well diet tray assay; type: in vivo; settings: Spodoptera exigua; Beet Armyworm; rating class; read-out: BAW
In short: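 Diet-overlay assay: 50 μg/cm^2 compound applied in 90:10 acetone-water to artificial diet, allowed to dry, then infested with 1–5 L2 larvae/well; 8 wells/compound; covered, vented; 25° C., 14:10 L:D, 5–7 d; % mortality per well, averaged.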

[2] = test system: Cabbage Looper (Trichoplusia ni, TRIPNI); experiment: Bioassays on Cabbage Looper (CL), 128-well diet tray assay; type: in vivo; settings: Trichoplusia ni; Cabbage Looper; rating class; read-out: CL
In short: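 Each of eight wells receives artificial diet treated at 50 μg/cm^2 with the test molecule, then one to five second-instar larvae. Incubation runs five to seven days at 25° C with a 14:10 light-dark cycle under vented covers. Mortality is scored per well as a percentage and averaged.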

Compound	pest or weed control at 50 µg/cm2 [1]	pest or weed control at 50 µg/cm2 [2]
N#CCC(=O)Nc1c(F)ccc(NC(=O)c2cc(NC(=O)[C@H]3[C@H](c4cc(Cl)c(Cl)c(Cl)c4)C3(Cl)Cl)ccc2Cl)c1F [F1650, 2-Chloro-N-(3-(2-cyanoacetamido)-2,4-difluorophenyl)-5-((1R,3R)-2,2-dichloro-3-(3,4,5-trichlorophenyl)cyclopropane-1-carboxamido)benzamide]	50 to 100%	50 to 100%
O=C(Nc1ccc(F)c(NC(=O)C(F)(F)C(F)(F)C(F)(F)F)c1F)c1cc(NC(=O)[C@H]2[C@H](c3cc(Cl)c(Cl)c(Cl)c3)C2(Cl)Cl)ccc1Cl [F1652, 2-Chloro-5-((1R,3R)-2,2-dichloro-3-(3,4,5-trichlorophenyl)cyclopropane-1-carboxamido)-N-(2,4-difluoro-3-(2,2,3,3,4,4,4-heptafluorobutanamido)phenyl)benzamide]	50 to 100%	50 to 100%
CCCC(=O)Nc1c(F)ccc(NC(=O)c2cc(NC(=O)[C@H]3[C@H](c4ccc(Cl)c(C(F)(F)F)c4)C3(Cl)Cl)ccc2Cl)c1F [F1659, N-(3-Butyramido-2,4-difluorophenyl)-2-chloro-5-((1R,3R)-2,2-dichloro-3-(4-chloro-3-(trifluoromethyl)phenyl)cyclopropane-1-carboxamido)benzamide]	50 to 100%	50 to 100%
O=C(Nc1ccc(F)c(NC(=O)C2(C(F)(F)F)CC2)c1F)c1cc(NC(=O)[C@H]2[C@H](c3ccc(Cl)c(Cl)c3)C2(Cl)Cl)ccc1Cl [F1662, 2-Chloro-5-((1R,3R)-2,2-dichloro-3-(3,4-dichlorophenyl)cyclopropane-1-carboxamido)-N-(2,4-difluoro-3-(1-(trifluoromethyl)cyclopropane-1-carboxamido)phenyl)benzamide]	50 to 100%	50 to 100%
O=C(Nc1ccc(F)c(NC(=O)[C@H]2CCCN2)c1F)c1cc(NC(=O)[C@H]2[C@H](c3ccc(Cl)c(Cl)c3)C2(Cl)Cl)ccc1Cl [F1663, (R)—N-(3-(2-Chloro-5-((1R,3R)-2,2-dichloro-3-(3,4-dichlorophenyl)cyclopropane-1-carboxamido)benzamido)-2,6-difluorophenyl)pyrrolidine-2-carboxamide]	50 to 100%	50 to 100%
O=C(Nc1ccc(F)c(NC(=O)[C@@H]2CCCN2)c1F)c1cc(NC(=O)[C@H]2[C@H](c3ccc(Cl)c(Cl)c3)C2(Cl)Cl)ccc1Cl [F1664, (S)—N-(3-(2-chloro-5-((1R,3R)-2,2-dichloro-3-(3,4-dichlorophenyl)cyclopropane-1-carboxamido)benzamido)-2,6-difluorophenyl)pyrrolidine-2-carboxamide]	50 to 100%	50 to 100%
CC(C)(C)OC(=O)N(C(=O)OC(C)(C)C)c1c(F)ccc(NC(=O)c2cc(NC(=O)[C@H]3[C@H](c4cccc(C(F)(F)F)c4)C3(Cl)Cl)ccc2Cl)c1F [F1665, tert-Butyl N-tert-butoxycarbonyl-N-[3-[[2-chloro-5-[[(1R,3R)-2,2-dichloro-3-[3-(trifluoromethyl)phenyl]cyclopropanecarbonyl]amino]benzoyl]amino]-2,6-difluoro-phenyl]carbamate]	50 to 100%	50 to 100%
O=C(Nc1c(F)ccc(NC(=O)c2cc(NC(=O)[C@H]3[C@H](c4ccc(Cl)c(Cl)c4)C3(Cl)Cl)ccc2Cl)c1F)c1ccns1 [F1672]	50 to 100%	50 to 100%
Cc1c(F)c(N)cc(NC(=O)c2cc(NC(=O)[C@H]3[C@H](c4ccc(F)c(C(F)(F)F)c4)C3(Cl)Cl)ccc2Cl)c1F [F1674, N-(5-Amino-2,4-difluoro-3-methylphenyl)-2-chloro-5-((1R,3R)-2,2-dichloro-3-(4-fluoro-3-(trifluoromethyl)phenyl)cyclopropane-1-carboxamido)benzamide]	50 to 100%	50 to 100%
O=C(Nc1ccc(F)c(NC(=O)C2CCCO2)c1F)c1cc(NC(=O)[C@H]2[C@H](c3cccc(C(F)(F)F)c3)C2(Cl)Cl)ccc1Cl (stereo partly drawn) [F1676, N-(3-(2-Chloro-5-((1R,3R)-2,2-dichloro-3-(3-(trifluoromethyl)phenyl)cyclopropane-1-carboxamido)benzamido)-2,6-difluorophenyl)tetrahydrofuran-2-carboxamide]	50 to 100%	50 to 100%
O=C(Nc1ccc(F)c(NC(=O)C(F)(F)C(F)F)c1F)c1cc(NC(=O)[C@H]2[C@H](c3cccc(C(F)(F)F)c3)C2(Cl)Cl)ccc1Cl [F1677, 2-Chloro-5-((1R,3R)-2,2-dichloro-3-(3-(trifluoromethyl)phenyl)cyclopropane-1-carboxamido)-N-(2,4-difluoro-3-(2,2,3,3-tetrafluoropropanamido)phenyl)benzamide]	50 to 100%	50 to 100%
CC(C)(C)OC(=O)N(C(=O)OC(C)(C)C)c1c(F)ccc(NC(=O)c2cc(NC(=O)[C@H]3[C@H](c4cc(F)cc(C(F)(F)F)c4)C3(Cl)Cl)ccc2Cl)c1F [F1681, tert-Butyl N-tert-butoxycarbonyl-N-[3-[[2-chloro-5-[[(1R,3R)-2,2-dichloro-3-[3-fluoro-5-(trifluoromethyl)phenyl]cyclopropanecarbonyl]amino]benzoyl]amino]-2,6-difluoro-phenyl]carbamate]	50 to 100%	50 to 100%
O=C(CC(F)(F)F)Nc1c(F)ccc(NC(=O)c2cc(NC(=O)[C@H]3[C@H](c4ccc(F)c(C(F)(F)F)c4)C3(Cl)Cl)ccc2Cl)c1F [F1683, 2-Chloro-5-((1R,3R)-2,2-dichloro-3-(4-fluoro-3-(trifluoromethyl)phenyl)cyclopropane-1-carboxamido)-N-(2,4-difluoro-3-(3,3,3-trifluoropropanamido)phenyl)benzamide]	50 to 100%	50 to 100%
O=C(Nc1ccc(F)cc1F)c1cc(NC(=O)[C@H]2[C@H](c3cc(F)c(F)c(F)c3)C2(Cl)Cl)ccc1Cl [F1693, 2-Chloro-5-((1R,3R)-2,2-dichloro-3-(3,4,5-trifluorophenyl)cyclopropane-1-carboxamido)-N-(2,4-difluorophenyl)benzamide]	50 to 100%	50 to 100%
Nc1c(F)ccc(NC(=O)c2cc(NC(=O)[C@H]3[C@H](c4ccc(F)c(Br)c4)C3(Cl)Cl)ccc2Cl)c1F [F1713, N-(3-Amino-2,4-difluorophenyl)-5-((1R,3R)-3-(3-bromo-4-fluorophenyl)-2,2-dichlorocyclopropane-1-carboxamido)-2-chlorobenzamide]	50 to 100%	50 to 100%
O=C(Nc1ccc(F)c(NC(=O)C2CCCO2)c1F)c1cc(NC(=O)[C@H]2[C@H](c3ccc(F)c(Br)c3)C2(Cl)Cl)ccc1Cl (stereo partly drawn) [F1714, N-(3-(5-((1R,3R)-3-(3-Bromo-4-fluorophenyl)-2,2-dichlorocyclopropane-1-carboxamido)-2-chlorobenzamido)-2,6-difluorophenyl)tetrahydrofuran-2-carboxamide]	50 to 100%	50 to 100%
O=C(Nc1ccc(F)c(NC(=O)C(F)(F)C(F)F)c1F)c1cc(NC(=O)[C@H]2[C@H](c3ccc(F)c(Br)c3)C2(Cl)Cl)ccc1Cl [F1715, 5-((1R,3R)-3-(3-Bromo-4-fluorophenyl)-2,2-dichlorocyclopropane-1-carboxamido)-2-chloro-N-(2,4-difluoro-3-(2,2,3,3-tetrafluoropropanamido)phenyl)benzamide]	50 to 100%	50 to 100%
CC(=O)Nc1c(F)ccc(NC(=O)c2cc(NC(=O)[C@H]3[C@H](c4ccc(F)c(Br)c4)C3(Cl)Cl)ccc2Cl)c1F [F1716, N-(3-Acetamido-2,4-difluorophenyl)-5-((1R,3R)-3-(3-bromo-4-fluorophenyl)-2,2-dichlorocyclopropane-1-carboxamido)-2-chlorobenzamide]	50 to 100%	50 to 100%
CCC(=O)Nc1c(F)ccc(NC(=O)c2cc(NC(=O)[C@H]3[C@H](c4ccc(F)c(Br)c4)C3(Cl)Cl)ccc2Cl)c1F [F1717, 5-((1R,3R)-3-(3-Bromo-4-fluorophenyl)-2,2-dichlorocyclopropane-1-carboxamido)-2-chloro-N-(2,4-difluoro-3-propionamidophenyl)benzamide]	50 to 100%	50 to 100%
O=C(CC(F)(F)F)Nc1c(F)ccc(NC(=O)c2cc(NC(=O)[C@H]3[C@H](c4ccc(F)c(Br)c4)C3(Cl)Cl)ccc2Cl)c1F [F1718, 5-((1R,3R)-3-(3-Bromo-4-fluorophenyl)-2,2-dichlorocyclopropane-1-carboxamido)-2-chloro-N-(2,4-difluoro-3-(3,3,3-trifluoropropanamido)phenyl)benzamide]	50 to 100%	50 to 100%
O=C(Nc1ccc(F)c(NC(=O)C2CCCS2)c1F)c1cc(NC(=O)[C@H]2[C@H](c3ccc(F)c(C(F)(F)F)c3)C2(Cl)Cl)ccc1Cl (stereo partly drawn) [F1721, N-(3-(2-Chloro-5-((1R,3R)-2,2-dichloro-3-(4-fluoro-3-(trifluoromethyl)phenyl)cyclopropane-1-carboxamido)benzamido)-2,6-difluorophenyl)tetrahydrothiophene-2-carboxamide]	50 to 100%	50 to 100%
O=C(Nc1ccc(F)c(NC(=O)C2CCCOC2)c1F)c1cc(NC(=O)[C@H]2[C@H](c3ccc(F)c(C(F)(F)F)c3)C2(Cl)Cl)ccc1Cl (stereo partly drawn) [F1722, N-(3-(2-Chloro-5-((1R,3R)-2,2-dichloro-3-(4-fluoro-3-(trifluoromethyl)phenyl)cyclopropane-1-carboxamido)benzamido)-2,6-difluorophenyl)tetrahydro-2H-pyran-3-carboxamide]	50 to 100%	50 to 100%
